Source: article PMC6823368 (Scientific Reports, 2019)
Read-outs that look alike come from different tables or passages of the source.

Tests used:
[1] = set-up: method as in earlier work; settings: cited from earlier work
plasma protein = settings: cited from earlier work
CYP2C9 = settings: hepatic isoenzyme; cited from earlier work
2D6 = settings: hepatic isoenzyme; cited from earlier work
COX-2 = settings: cited from earlier work
3A4 = settings: hepatic isoenzyme; cited from earlier work
[2] = Safety evaluations (adverse events, clinical and laboratory examinations)
Method: The safety assessments were conducted on account of clinical examinations, such as evaluation of general subject appearance, vital signs and routine hematology and biochemistry assays[35], together with adverse events evaluation (AEs), conducted at screening, pretreatment, post-treatment (day 7) and end of trial (day 16). […] AEs were defined as mild, moderate or severe[37]. Determination of causal relationship between AEs and study drugs followed the criterions announced by the World Health Organization[27].

COX-1 = settings: read-out: 50% inhibitory concentration (IC50) of COX-1; cited from earlier work
[3] = n=12; for Cmax / MRT0-∞: mean (SD); for Tmax: median (range)
Method: The volunteers were hospitalized on day-1 (the day before the study), 10 hours of fasting was required before administration[27].
The chromatographic separation was carried out on an LC system (Shimadzu LC-20AD, Tokyo, Japan) using water and acetonitrile, and AB QTRAP 4000 system (AB Sciex, Foster City, CA, USA) in positive electrospray ion mode was hired for quantification[29]–[31]. […] Liquid-liquid extraction with 3 mL dichloromethane: diethyl ether: (2:3, v/v) was employed for 200 μL human plasma.
(§1) The measurement outcomes contained area under the profile (AUC0-t), the terminal half-life (t1/2), maximum plasma concentration observed (Cmax), time of maximum concentration (Tmax). AUC from 0 to infinity (AUC0-∞). Parameters of pharmacodynamic were estimated from the INR data on each period. PT (INR) was measured with the use of prothrombin complex assay (STA-R, SPA 50 Reagent, Diagnostica stago)[34]. Maximum INR (INRmax) and baseline INR (INRbaseline) were determined by PTtest divide PTnormal.
(§2) Log-transformation of pharmacodynamic parameters INRmax and INR(AUC) were applied.

[4] = test system: vitamin K-dependent coagulation factors; settings: cited from earlier work
prothrombin time (INR) = settings: area under INR-time profile 0-[…]; 5 mg warfarin; n=12
Method: Current study is phase I clinical trial, which was designed as open-labeled and fixed-sequence, and all the information/data were collected from a single center. […] The volunteers were hospitalized on day-1 (the day before the study), 10 hours of fasting was required before administration[27]. Subjects should avoid any activities involved in risks of haemorrhage[9].
as §1, §2

[5] = warfarin 5 mg with steady-state imrecoxib

**Q.** For CCCN1CC(c2ccc(S(C)(=O)=O)cc2)=C(c2ccc(C)cc2)C1=O [Imrecoxib, 4-(4-methylsulfonyl-phenyl)-1-propyl-3-(p-tolyl)-1H-pyrrol-2(5H)-one], which accumulation in plasma ([1]; 200 mg bid for 11 consecutive days) is on record?
**A.** No accumulated effects

**Q.** And the t1/2 [1]?
**A.** 20 h

**Q.** What about the Tmax ([1]; following oral consumption) of the same compound?
**A.** 2 h

**Q.** What about the “single-dose pharmacokinetics dose linearity” value ([1]; over the 30 to 200 mg dose range) of the same compound?
**A.** linear

**Q.** What about the “protein bound in plasma” value (plasma protein) of the same compound?
**A.** 96%

**Q.** And the “rate of metabolism by CYP2C9” value (CYP2C9)?
**A.** 62.5%

**Q.** And the “rate of metabolism by CYP2D6” value (2D6)?
**A.** 21.1%

**Q.** What about the “selective index (IC50, COX-1/COX2)” value (COX-2; between that of meloxicam and celecoxib) of the same compound?
**A.** 6.39

**Q.** And the IC50 (COX-2; read-out: 50% inhibitory concentration (IC50) of COX-2)?
**A.** 18 ± 4 nM

**Q.** And the “rate of metabolism by CYP3A4” value (3A4)?
**A.** 16.4%

**Q.** What about the adverse event ([2]; one subject, period 2, Day 8 after first dose (200 mg), about 1.5 hours, resolved without treatment, possibly related) of the same compound?
**A.** mild abdominal/upper abdominal discomfort

**Q.** And the IC50 (COX-1)?
**A.** 115 ± 28 nM

**Q.** With CC(=O)C[C@H](c1ccccc1)c1c(O)c2ccccc2oc1=O [R-warfarin] as the compound, how does the Cmax ([3]; warfarin 5 mg alone) read?
**A.** 285.25 (39.66) μg/L

**Q.** What about the “MRT0-∞” value ([3]; warfarin 5 mg alone) of the same compound?
**A.** 88.41 (19.96) hr

**Q.** And the Tmax ([3]; warfarin 5 mg alone)?
**A.** 1.0 (0.5–3.0) hr

**Q.** And the Cmax [3, 5]?
**A.** 300.75 (36.61) μg/L

**Q.** And the “MRT0-∞” value [3, 5]?
**A.** 83.44 (13.39) hr

**Q.** And the Tmax [3, 5]?
**A.** 0.8 (0.5–2.0) hr

**Q.** For CC(=O)C[C@@H](c1ccccc1)c1c(O)c2ccccc2oc1=O [S-warfarin], which “share of anticoagulant activity of warfarin” value [4] is on record?
**A.** 85%

**Q.** What about the Cmax ([3]; warfarin 5 mg alone) of the same compound?
**A.** 294.92 (50.35) μg/L

**Q.** What about the “MRT0-∞” value ([3]; warfarin 5 mg alone) of the same compound?
**A.** 66.44 (15.76) hr

**Q.** And the Tmax ([3]; warfarin 5 mg alone)?
**A.** 1.0 (0.5–3.0) hr

**Q.** What about the Cmax [3, 5] of the same compound?
**A.** 300.42 (34.01) μg/L

**Q.** What about the “MRT0-∞” value [3, 5] of the same compound?
**A.** 63.35 (12.78) hr

**Q.** And the Tmax [3, 5]?
**A.** 0.8 (0.5–2.0) hr

**Q.** For CC(=O)CC(c1ccccc1)c1c(O)c2ccccc2oc1=O (stereo not shown) [Warfarin], which safety and tolerance ([2]; healthy volunteers, across the trial) is on record?
**A.** safey and good tolerance

**Q.** What about the “transient elevated direct bilirubin” value ([2]; one subject, period 1, day 7, upper limit of normal 6.8 μmol/L, grade 1 AE, considered unrelated to study drugs) of the same compound?
**A.** 9.6 µmol/L

**Q.** What about the “INR (AUC)” value (prothrombin time (INR)) of the same compound?
**A.** 143.47
